Measured values taken from ChEMBL document CHEMBL3885861, “Open TG-GATES”.

Species on record: Rattus norvegicus
Test: Open TG-GATES - Regimen: Daily Repeat
Type: toxicity, organism-based, Sprague-Dawley
Parameters: regimen Daily Repeat, gender Male, age 6 weeks
Conditions: in vivo, po, route gavage; for APTT / Bas / Eos / Fbg / Hb / Ht / Lym / MCH / MCHC / MCV / Mono / Neu / PT / Plat / RBC / Ret / WBC: tissue Blood; for KIDNEY_L / KIDNEY_R / KIDNEY_TOTAL: tissue Kidney; for LIVER: tissue Liver; for A/G / ALP / ALT / AST / BUN / CRE / Ca / Cl / DBIL / GLC / IP / K / LDH / Na / PL / RALB / TBIL / TC / TG / TP / gamma-GTP: tissue Plasma
[1] = 300 mg/kg, 72 h, dose level Middle, time 3 day
[2] = 300 mg/kg, […], dose level Middle, time 7 day
[3] = 300 mg/kg, […], dose level Middle, time 14 day
[4] = 300 mg/kg, […], dose level Middle, time 28 day
[5] = 1000 mg/kg, 72 h, dose level High, time 3 day
[6] = 1000 mg/kg, […], dose level High, time 7 day
[7] = 1000 mg/kg, […], dose level High, time 14 day
[8] = 1000 mg/kg, […], dose level High, time 28 day

O=C(O)c1cc(/N=N/c2ccc(S(=O)(=O)Nc3ccccn3)cc2)ccc1O [SULFASALAZINE]
TERMINAL_BW [1]: 236.9 g
APTT [1]: 18.6 s
Bas [1]: 0%
Eos [1]: 1%
Fbg [1]: 213 mg/dL
Hb [1]: 13.2 g/dL
Ht [1]: 38.4%
Lym [1]: 81.6%
MCH [1]: 21.8 pg
MCHC [1]: 34.5%
MCV [1]: 63.2 fL
Mono [1]: 2.2%
Neu [1]: 14%
PT [1]: 12.5 s
Plat [1]: 146.1 x10_4/uL
RBC [1]: 607.4 x10_4/ul
Ret [1]: 5.7%
WBC [1]: 109.3 x10_2/uL
KIDNEY_L [1]: 1 g
KIDNEY_R [1]: 1 g
KIDNEY_TOTAL [1]: 2 g
LIVER [1]: 11.1 g
A/G [1]: 1.5
ALP [1]: 1050.4 IU/L
ALT [1]: 37 IU/L
AST [1]: 69.6 IU/L
BUN [1]: 16.4 mg/dL
CRE [1]: 0.4 mg/dL
Ca [1]: 10.9 mg/dL
Cl [1]: 103.2 meq/L
DBIL [1]: 0.092 mg/dL
GLC [1]: 202.6 mg/dL
IP [1]: 6.8 mg/dL
K [1]: 3.9 meq/L
LDH [1]: 257.2 IU/L
Na [1]: 141 meq/L
PL [1]: 156.6 mg/dL
RALB [1]: 3.4 g/dL
TBIL [1]: 0.2 mg/dL
TC [1]: 81 mg/dL
TG [1]: 86.6 mg/dL
TP [1]: 5.6 g/dL
gamma-GTP [1]: 1.4 IU/L
TERMINAL_BW [2]: 264.7 g
TERMINAL_BW [3]: 309.2 g
TERMINAL_BW [4]: 365.3 g
APTT [2]: 18.5 s
Bas [2]: 0%
Eos [2]: 1%
Fbg [2]: 212.4 mg/dL
Hb [2]: 13.6 g/dL
Ht [2]: 39.4%
Lym [2]: 79.4%
MCH [2]: 21.4 pg
MCHC [2]: 34.5%
MCV [2]: 62 fL
Mono [2]: 2.6%
Neu [2]: 15.6%
PT [2]: 12.9 s
Plat [2]: 124.9 x10_4/uL
RBC [2]: 636.2 x10_4/ul
Ret [2]: 5.3%
WBC [2]: 123 x10_2/uL
APTT [3]: 18.5 s
Bas [3]: 0%
Eos [3]: 1%
Fbg [3]: 214.6 mg/dL
Hb [3]: 14.8 g/dL
Ht [3]: 41.7%
Lym [3]: 83.4%
MCH [3]: 21.2 pg
MCHC [3]: 35.4%
MCV [3]: 59.8 fL
Mono [3]: 2.6%
Neu [3]: 11.6%
PT [3]: 12.7 s
Plat [3]: 114.3 x10_4/uL
RBC [3]: 698 x10_4/ul
Ret [3]: 4.3%
WBC [3]: 109.2 x10_2/uL
APTT [4]: 18.2 s
Bas [4]: 0%
Eos [4]: 1%
Fbg [4]: 199 mg/dL
Hb [4]: 15.2 g/dL
Ht [4]: 42.2%
Lym [4]: 81.2%
MCH [4]: 20.1 pg
MCHC [4]: 35.9%
MCV [4]: 56 fL
Mono [4]: 2.4%
Neu [4]: 14.4%
PT [4]: 12.8 s
Plat [4]: 100.8 x10_4/uL
RBC [4]: 753.6 x10_4/ul
Ret [4]: 3%
WBC [4]: 88.7 x10_2/uL
KIDNEY_L [2]: 1.1 g
KIDNEY_R [2]: 1.1 g
KIDNEY_TOTAL [2]: 2.2 g
KIDNEY_L [3]: 1.2 g
KIDNEY_R [3]: 1.2 g
KIDNEY_TOTAL [3]: 2.4 g
KIDNEY_L [4]: 1.3 g
KIDNEY_R [4]: 1.3 g
KIDNEY_TOTAL [4]: 2.6 g
LIVER [2]: 11.8 g
LIVER [3]: 13 g
LIVER [4]: 13.6 g
A/G [2]: 1.7
ALP [2]: 838.8 IU/L
ALT [2]: 36.8 IU/L
AST [2]: 66.2 IU/L
BUN [2]: 15.8 mg/dL
CRE [2]: 0.4 mg/dL
Ca [2]: 10.7 mg/dL
Cl [2]: 103.6 meq/L
DBIL [2]: 0.088 mg/dL
GLC [2]: 213.8 mg/dL
IP [2]: 7 mg/dL
K [2]: 3.7 meq/L
LDH [2]: 186.6 IU/L
Na [2]: 140.8 meq/L
PL [2]: 144.4 mg/dL
RALB [2]: 3.5 g/dL
TBIL [2]: 0.1 mg/dL
TC [2]: 70.8 mg/dL
TG [2]: 83 mg/dL
TP [2]: 5.6 g/dL
gamma-GTP [2]: 1.4 IU/L
A/G [3]: 1.4
ALP [3]: 901 IU/L
ALT [3]: 37.2 IU/L
AST [3]: 64.8 IU/L
BUN [3]: 18 mg/dL
CRE [3]: 0.5 mg/dL
Ca [3]: 10.7 mg/dL
Cl [3]: 102.8 meq/L
DBIL [3]: 0.094 mg/dL
GLC [3]: 190.6 mg/dL
IP [3]: 7.1 mg/dL
K [3]: 3.6 meq/L
LDH [3]: 204.6 IU/L
Na [3]: 141 meq/L
PL [3]: 151.2 mg/dL
RALB [3]: 3.5 g/dL
TBIL [3]: 0.2 mg/dL
TC [3]: 70.4 mg/dL
TG [3]: 105.8 mg/dL
TP [3]: 6 g/dL
gamma-GTP [3]: 2 IU/L
A/G [4]: 1.5
ALP [4]: 668.8 IU/L
ALT [4]: 37.4 IU/L
AST [4]: 63.6 IU/L
BUN [4]: 18 mg/dL
CRE [4]: 0.5 mg/dL
Ca [4]: 10.3 mg/dL
Cl [4]: 103.8 meq/L
DBIL [4]: 0.082 mg/dL
GLC [4]: 214.2 mg/dL
IP [4]: 6.3 mg/dL
K [4]: 3.3 meq/L
LDH [4]: 134.4 IU/L
Na [4]: 141.8 meq/L
PL [4]: 128.6 mg/dL
RALB [4]: 3.5 g/dL
TBIL [4]: 0.1 mg/dL
TC [4]: 59.6 mg/dL
TG [4]: 92.6 mg/dL
TP [4]: 5.9 g/dL
gamma-GTP [4]: 1.2 IU/L
TERMINAL_BW [5]: 221.5 g
APTT [5]: 18 s
Bas [5]: 0%
Eos [5]: 0.8%
Fbg [5]: 215 mg/dL
Hb [5]: 14.4 g/dL
Ht [5]: 42%
Lym [5]: 87.2%
MCH [5]: 21.4 pg
MCHC [5]: 34.2%
MCV [5]: 62.4 fL
Mono [5]: 2%
Neu [5]: 8.8%
PT [5]: 13.1 s
Plat [5]: 127.1 x10_4/uL
RBC [5]: 674.2 x10_4/ul
Ret [5]: 3.4%
WBC [5]: 93.4 x10_2/uL
KIDNEY_L [5]: 1 g
KIDNEY_R [5]: 1 g
KIDNEY_TOTAL [5]: 1.9 g
LIVER [5]: 10.2 g
A/G [5]: 1.6
ALP [5]: 888.8 IU/L
ALT [5]: 49.4 IU/L
AST [5]: 77.4 IU/L
BUN [5]: 20.8 mg/dL
CRE [5]: 0.4 mg/dL
Ca [5]: 10.8 mg/dL
Cl [5]: 103.6 meq/L
DBIL [5]: 0.094 mg/dL
GLC [5]: 187.4 mg/dL
IP [5]: 6.8 mg/dL
K [5]: 3.6 meq/L
LDH [5]: 252.8 IU/L
Na [5]: 141 meq/L
PL [5]: 149.2 mg/dL
RALB [5]: 3.5 g/dL
TBIL [5]: 0.1 mg/dL
TC [5]: 78.4 mg/dL
TG [5]: 70 mg/dL
TP [5]: 5.6 g/dL
gamma-GTP [5]: 1.4 IU/L
TERMINAL_BW [6]: 246.1 g
TERMINAL_BW [7]: 276.8 g
TERMINAL_BW [8]: 334.1 g
APTT [6]: 19.3 s
Bas [6]: 0%
Eos [6]: 0.6%
Fbg [6]: 197 mg/dL
Hb [6]: 14.1 g/dL
Ht [6]: 40.8%
Lym [6]: 86.2%
MCH [6]: 21.2 pg
MCHC [6]: 34.7%
MCV [6]: 61.1 fL
Mono [6]: 2.6%
Neu [6]: 9.6%
PT [6]: 13.6 s
Plat [6]: 106.1 x10_4/uL
RBC [6]: 667.6 x10_4/ul
Ret [6]: 4.5%
WBC [6]: 106.7 x10_2/uL
APTT [7]: 19.4 s
Bas [7]: 0%
Eos [7]: 0.8%
Fbg [7]: 200.6 mg/dL
Hb [7]: 15.2 g/dL
Ht [7]: 42.7%
Lym [7]: 85.4%
MCH [7]: 20.2 pg
MCHC [7]: 35.6%
MCV [7]: 57 fL
Mono [7]: 1.8%
Neu [7]: 10.8%
PT [7]: 13.4 s
Plat [7]: 106.3 x10_4/uL
RBC [7]: 750.2 x10_4/ul
Ret [7]: 3%
WBC [7]: 132.9 x10_2/uL
APTT [8]: 18.9 s
Bas [8]: 0%
Eos [8]: 1%
Fbg [8]: 206.2 mg/dL
Hb [8]: 14.9 g/dL
Ht [8]: 41.8%
Lym [8]: 84%
MCH [8]: 19.5 pg
MCHC [8]: 35.6%
MCV [8]: 54.7 fL
Mono [8]: 1.8%
Neu [8]: 12.6%
PT [8]: 13.3 s
Plat [8]: 101.4 x10_4/uL
RBC [8]: 763.6 x10_4/ul
Ret [8]: 4.2%
WBC [8]: 116.9 x10_2/uL
KIDNEY_L [6]: 1 g
KIDNEY_R [6]: 1 g
KIDNEY_TOTAL [6]: 2.1 g
KIDNEY_L [7]: 1.1 g
KIDNEY_R [7]: 1.2 g
KIDNEY_TOTAL [7]: 2.2 g
KIDNEY_L [8]: 1.3 g
KIDNEY_R [8]: 1.3 g
KIDNEY_TOTAL [8]: 2.6 g
LIVER [6]: 10.8 g
LIVER [7]: 11.1 g
LIVER [8]: 12.9 g
A/G [6]: 1.6
ALP [6]: 756.2 IU/L
ALT [6]: 46 IU/L
AST [6]: 74 IU/L
BUN [6]: 19.8 mg/dL
CRE [6]: 0.4 mg/dL
Ca [6]: 10.7 mg/dL
Cl [6]: 104.6 meq/L
DBIL [6]: 0.068 mg/dL
GLC [6]: 202.8 mg/dL
IP [6]: 7.2 mg/dL
K [6]: 3.4 meq/L
LDH [6]: 216.4 IU/L
Na [6]: 142.4 meq/L
PL [6]: 118 mg/dL
RALB [6]: 3.5 g/dL
TBIL [6]: 0.1 mg/dL
TC [6]: 63 mg/dL
TG [6]: 36.4 mg/dL
TP [6]: 5.7 g/dL
gamma-GTP [6]: 1.4 IU/L
A/G [7]: 1.6
ALP [7]: 776.2 IU/L
ALT [7]: 47.6 IU/L
AST [7]: 75.2 IU/L
BUN [7]: 21.2 mg/dL
CRE [7]: 0.5 mg/dL
Ca [7]: 10.7 mg/dL
Cl [7]: 103 meq/L
DBIL [7]: 0.068 mg/dL
GLC [7]: 186.2 mg/dL
IP [7]: 6.7 mg/dL
K [7]: 3.5 meq/L
LDH [7]: 196.6 IU/L
Na [7]: 141.8 meq/L
PL [7]: 122.2 mg/dL
RALB [7]: 3.7 g/dL
TBIL [7]: 0.1 mg/dL
TC [7]: 67.2 mg/dL
TG [7]: 33.8 mg/dL
TP [7]: 6.1 g/dL
gamma-GTP [7]: 1.4 IU/L
A/G [8]: 1.6
ALP [8]: 655 IU/L
ALT [8]: 44.8 IU/L
AST [8]: 68.6 IU/L
BUN [8]: 19.8 mg/dL
CRE [8]: 0.5 mg/dL
Ca [8]: 10.4 mg/dL
Cl [8]: 103.6 meq/L
DBIL [8]: 0.074 mg/dL
GLC [8]: 206.8 mg/dL
IP [8]: 6.2 mg/dL
K [8]: 3.3 meq/L
LDH [8]: 137.6 IU/L
Na [8]: 143.2 meq/L
PL [8]: 108.6 mg/dL
RALB [8]: 3.8 g/dL
TBIL [8]: 0.1 mg/dL
TC [8]: 62.2 mg/dL
TG [8]: 27.6 mg/dL
TP [8]: 6.1 g/dL
gamma-GTP [8]: 1.4 IU/L
